This passage reports relative viability results from the supplement of paper PMC10307832.

What all share (experiment): relative viability (nuclei count vs DMSO), 5 days (fraction); higher = more cells survive
Compound in the experiment “Linsitinib + Crizotinib”: C[C@]1(O)C[C@@H](c2nc(-c3ccc4ccc(-c5ccccc5)nc4c3)c3c(N)nccn32)C1 [Linsitinib] + C[C@@H](Oc1cc(-c2cnn(C3CCNCC3)c2)cnc1N)c1c(Cl)ccc(F)c1Cl [Crizotinib] (partner 1 µM)
The gist of the method:
(§1)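 Relative viability is defined as nuclei in treated wells over nuclei in vehicle wells. Duplicate plates were run and medians reported. Lung cancer cell lines in 1536-well plates were dosed by pin tool one day after seeding, with one drug or with a fixed anchor-drug dose plus five library-drug doses (not always all listed) in √10 steps, and nuclei were counted after 5 days.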

Compound in the experiment “Ispinesib + OSI-027”: Cc1ccc(C(=O)N(CCCN)[C@@H](c2nc3cc(Cl)ccc3c(=O)n2Cc2ccccc2)C(C)C)cc1 [Ispinesib] + COc1cccc2cc(-c3nc([C@H]4CC[C@H](C(=O)O)CC4)n4ncnc(N)c34)[nH]c12 [OSI-027] (partner 0.5 µM)
The gist of the method: as §1

Compound in the experiment “Ispinesib + Decitabine”: Cc1ccc(C(=O)N(CCCN)[C@@H](c2nc3cc(Cl)ccc3c(=O)n2Cc2ccccc2)C(C)C)cc1 [Ispinesib] + Nc1ncn([C@H]2C[C@H](O)[C@@H](CO)O2)c(=O)n1 [Decitabine] (partner 2 µM)
An outline of the steps:
as §1

Compound in the experiment “Linsitinib + Lapatinib”: C[C@]1(O)C[C@@H](c2nc(-c3ccc4ccc(-c5ccccc5)nc4c3)c3c(N)nccn32)C1 [Linsitinib] + CS(=O)(=O)CCNCc1ccc(-c2ccc3ncnc(Nc4ccc(OCc5cccc(F)c5)c(Cl)c4)c3c2)o1 [Lapatinib] (partner 2 µM)
An outline of the steps:
as §1

Regarding LK-2, the relative viability was 0.249 with Linsitinib + Crizotinib (first compound 0.01 µM); 0.224 with Linsitinib + Crizotinib (first compound 0.03162 µM); 0.222 in the experiment with Linsitinib + Crizotinib (first compound 0.1 µM); 0.234 with Linsitinib + Crizotinib (first compound 0.3162 µM); 0.257 with Linsitinib + Crizotinib (first compound 1 µM); 0.2 with Ispinesib + OSI-027 (first compound 0.001 µM). Moreover, the relative viability amounted to 0.256 with Ispinesib + OSI-027 (first compound 0.003162 µM); 0.194 in the experiment with Ispinesib + OSI-027 (first compound 0.01 µM); 0.176 with Ispinesib + OSI-027 (first compound 0.03162 µM); 0.213 with Ispinesib + OSI-027 (first compound 0.1 µM); 0.253 with Ispinesib + Decitabine (first compound 0.001 µM); 0.419 with Ispinesib + Decitabine (first compound 0.003162 µM). The relative viability with Ispinesib + Decitabine (first compound 0.01 µM) came out at 0.36; with Ispinesib + Decitabine (first compound 0.03162 µM) it was 0.216; with Ispinesib + Decitabine (first compound 0.1 µM), 0.153; with Linsitinib + Lapatinib (first compound 0.01 µM), 0.899; with Linsitinib + Lapatinib (first compound 0.03162 µM), 0.995; in the experiment with Linsitinib + Lapatinib (first compound 0.1 µM) it was 0.844. In addition, the relative viability with Linsitinib + Lapatinib (first compound 0.3162 µM) worked out at 0.657; in the experiment with Linsitinib + Lapatinib (first compound 1 µM), 0.695.

Regarding HCC-15, the relative viability in the experiment with Linsitinib + Crizotinib (first compound 0.01 µM) amounted to 0.833; with Linsitinib + Crizotinib (first compound 0.03162 µM), 0.724; in the experiment with Linsitinib + Crizotinib (first compound 0.1 µM), 0.837; with Linsitinib + Crizotinib (first compound 0.3162 µM), 0.52; with Linsitinib + Crizotinib (first compound 1 µM), 0.696; with Ispinesib + OSI-027 (first compound 0.001 µM) it was 0.773. The relative viability was found to be 0.715 with Ispinesib + OSI-027 (first compound 0.003162 µM); 0.771 with Ispinesib + OSI-027 (first compound 0.01 µM); 0.203 with Ispinesib + OSI-027 (first compound 0.03162 µM); 0.178 in the experiment with Ispinesib + OSI-027 (first compound 0.1 µM); 0.706 in the experiment with Ispinesib + Decitabine (first compound 0.001 µM); 0.768 with Ispinesib + Decitabine (first compound 0.003162 µM). Further, the relative viability was found to be 0.752 with Ispinesib + Decitabine (first compound 0.01 µM); 0.418 with Ispinesib + Decitabine (first compound 0.03162 µM); 0.225 with Ispinesib + Decitabine (first compound 0.1 µM); 0.919 with Linsitinib + Lapatinib (first compound 0.01 µM); 0.807 with Linsitinib + Lapatinib (first compound 0.03162 µM); 0.883 in the experiment with Linsitinib + Lapatinib (first compound 0.1 µM). Further, the results for the relative viability with Linsitinib + Lapatinib (first compound 0.3162 µM) and with Linsitinib + Lapatinib (first compound 1 µM) were 0.2 and 0.612, respectively.

Take SW 1573: the relative viability with Linsitinib + Crizotinib (first compound 0.01 µM) was found to be 0.801; with Linsitinib + Crizotinib (first compound 0.03162 µM) it was 0.921; with Linsitinib + Crizotinib (first compound 0.1 µM) it was 0.796; in the experiment with Linsitinib + Crizotinib (first compound 0.3162 µM), 0.817; with Linsitinib + Crizotinib (first compound 1 µM) it was 0.577; with Ispinesib + OSI-027 (first compound 0.001 µM), 0.622. Besides, the relative viability in the experiment with Ispinesib + OSI-027 (first compound 0.003162 µM) came out at 0.645; with Ispinesib + OSI-027 (first compound 0.01 µM), 0.526; with Ispinesib + OSI-027 (first compound 0.03162 µM), 0.162; in the experiment with Ispinesib + OSI-027 (first compound 0.1 µM), 0.186; in the experiment with Ispinesib + Decitabine (first compound 0.001 µM) it was 0.44; in the experiment with Ispinesib + Decitabine (first compound 0.003162 µM), 0.58. For the same cell line, the relative viability was found to be 0.421 with Ispinesib + Decitabine (first compound 0.01 µM); 0.156 with Ispinesib + Decitabine (first compound 0.03162 µM); 0.199 in the experiment with Ispinesib + Decitabine (first compound 0.1 µM); 1.18 with Linsitinib + Lapatinib (first compound 0.01 µM); 1.3 with Linsitinib + Lapatinib (first compound 0.03162 µM); 1.05 in the experiment with Linsitinib + Lapatinib (first compound 0.1 µM). Also, the results for the relative viability with Linsitinib + Lapatinib (first compound 0.3162 µM) and in the experiment with Linsitinib + Lapatinib (first compound 1 µM) were 0.939 and 0.933, respectively.

Consider NCI-H838, for which the relative viability with Linsitinib + Crizotinib (first compound 0.01 µM) stood at 0.787; with Linsitinib + Crizotinib (first compound 0.03162 µM) it was 0.704; in the experiment with Linsitinib + Crizotinib (first compound 0.1 µM), 0.826; in the experiment with Linsitinib + Crizotinib (first compound 0.3162 µM) it was 0.673; with Linsitinib + Crizotinib (first compound 1 µM), 0.64; in the experiment with Ispinesib + OSI-027 (first compound 0.001 µM), 0.425. Further, the relative viability with Ispinesib + OSI-027 (first compound 0.003162 µM) is 0.359; in the experiment with Ispinesib + OSI-027 (first compound 0.01 µM), 0.539; in the experiment with Ispinesib + OSI-027 (first compound 0.03162 µM), 0.436; with Ispinesib + OSI-027 (first compound 0.1 µM), 0.197; with Ispinesib + Decitabine (first compound 0.001 µM), 0.457; with Ispinesib + Decitabine (first compound 0.003162 µM) it was 0.45. Also, the relative viability with Ispinesib + Decitabine (first compound 0.01 µM) came out at 0.46; in the experiment with Ispinesib + Decitabine (first compound 0.03162 µM), 0.236; in the experiment with Ispinesib + Decitabine (first compound 0.1 µM) it was 0.181; in the experiment with Linsitinib + Lapatinib (first compound 0.01 µM), 0.963; with Linsitinib + Lapatinib (first compound 0.03162 µM), 0.929; with Linsitinib + Lapatinib (first compound 0.1 µM), 0.883. Besides, the relative viability with Linsitinib + Lapatinib (first compound 0.3162 µM) was 0.286; with Linsitinib + Lapatinib (first compound 1 µM) it was 0.591.

On to RERF-LC-KJ, for which the relative viability was determined as 0.803 with Linsitinib + Crizotinib (first compound 0.01 µM); 0.816 with Linsitinib + Crizotinib (first compound 0.03162 µM); 0.849 in the experiment with Linsitinib + Crizotinib (first compound 0.1 µM); 0.731 with Linsitinib + Crizotinib (first compound 0.3162 µM); 0.739 with Linsitinib + Crizotinib (first compound 1 µM); 0.527 in the experiment with Ispinesib + OSI-027 (first compound 0.001 µM). Further, the relative viability with Ispinesib + OSI-027 (first compound 0.003162 µM) came out at 0.541; with Ispinesib + OSI-027 (first compound 0.01 µM), 0.405; with Ispinesib + OSI-027 (first compound 0.03162 µM), 0.246; with Ispinesib + OSI-027 (first compound 0.1 µM), 0.268; with Ispinesib + Decitabine (first compound 0.001 µM), 0.738; in the experiment with Ispinesib + Decitabine (first compound 0.003162 µM), 0.617. Also, the relative viability in the experiment with Ispinesib + Decitabine (first compound 0.01 µM) was 0.243; with Ispinesib + Decitabine (first compound 0.03162 µM), 0.222; in the experiment with Ispinesib + Decitabine (first compound 0.1 µM) it was 0.271; with Linsitinib + Lapatinib (first compound 0.01 µM), 0.8; in the experiment with Linsitinib + Lapatinib (first compound 0.03162 µM), 0.846; with Linsitinib + Lapatinib (first compound 0.1 µM), 0.826. Besides, the relative viability with Linsitinib + Lapatinib (first compound 0.3162 µM) was found to be 0.554; in the experiment with Linsitinib + Lapatinib (first compound 1 µM), 0.645.

NCI-H2170: the relative viability with Linsitinib + Crizotinib (first compound 0.01 µM) stood at 1.12; with Linsitinib + Crizotinib (first compound 0.03162 µM) it was 1.02; in the experiment with Linsitinib + Crizotinib (first compound 0.1 µM), 1.2; with Linsitinib + Crizotinib (first compound 0.3162 µM), 0.89; in the experiment with Linsitinib + Crizotinib (first compound 1 µM), 1.11; in the experiment with Ispinesib + OSI-027 (first compound 0.001 µM) it was 0.743. Moreover, the relative viability with Ispinesib + OSI-027 (first compound 0.003162 µM) turned out to be 0.644; in the experiment with Ispinesib + OSI-027 (first compound 0.01 µM), 0.75; in the experiment with Ispinesib + OSI-027 (first compound 0.03162 µM), 0.354; with Ispinesib + OSI-027 (first compound 0.1 µM) it was 0.191; with Ispinesib + Decitabine (first compound 0.001 µM), 0.518; with Ispinesib + Decitabine (first compound 0.003162 µM) it was 0.532. The relative viability came out at 0.548 with Ispinesib + Decitabine (first compound 0.01 µM); 0.46 in the experiment with Ispinesib + Decitabine (first compound 0.03162 µM); 0.379 with Ispinesib + Decitabine (first compound 0.1 µM); 0.266 with Linsitinib + Lapatinib (first compound 0.01 µM); 0.256 with Linsitinib + Lapatinib (first compound 0.03162 µM); 0.276 with Linsitinib + Lapatinib (first compound 0.1 µM). The relative viability came out at 0.256 with Linsitinib + Lapatinib (first compound 0.3162 µM) and 0.228 with Linsitinib + Lapatinib (first compound 1 µM).
